“Also recorded” adds a separate entry of the source. Read-outs that look alike come from different tables or passages of the source. Numbered stars: 1 amine (or outer) side, 2 acyl side, 3 side chain; on linkers, the order of the positions; unused ones are H or OH. Bridge positions count the residues as written; N and C are the ends. Square brackets hold non-standard residues; d marks the D form. Peptide text beside a SMILES is read from it. 2Nal = N[C@@H](Cc1ccc2ccccc2c1)C(=O)O; CH2 = C([*:1])[*:2]
Legend:
[1] = target: T1, DOR (Rattus norvegicus, UniProt P33533); type: cell-based
T1 sequence (P33533 whole entry): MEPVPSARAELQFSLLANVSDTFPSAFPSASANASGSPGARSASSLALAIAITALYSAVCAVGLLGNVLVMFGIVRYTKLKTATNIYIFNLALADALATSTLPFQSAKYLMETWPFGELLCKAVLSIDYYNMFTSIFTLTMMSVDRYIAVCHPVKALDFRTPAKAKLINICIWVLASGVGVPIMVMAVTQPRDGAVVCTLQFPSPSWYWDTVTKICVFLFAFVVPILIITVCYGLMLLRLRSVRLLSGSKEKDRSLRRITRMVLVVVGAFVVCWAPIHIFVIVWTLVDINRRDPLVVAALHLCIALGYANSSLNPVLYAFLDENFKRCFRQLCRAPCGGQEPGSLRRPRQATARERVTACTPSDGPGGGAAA

[2] = target: KOR (Homo sapiens, UniProt P41145); assay: [35S]GTPγS binding assay, CHO-KOR membranes; type: biochemical; conditions: [35S]GTPγS assay
Sequence of KOR (P41145 whole entry): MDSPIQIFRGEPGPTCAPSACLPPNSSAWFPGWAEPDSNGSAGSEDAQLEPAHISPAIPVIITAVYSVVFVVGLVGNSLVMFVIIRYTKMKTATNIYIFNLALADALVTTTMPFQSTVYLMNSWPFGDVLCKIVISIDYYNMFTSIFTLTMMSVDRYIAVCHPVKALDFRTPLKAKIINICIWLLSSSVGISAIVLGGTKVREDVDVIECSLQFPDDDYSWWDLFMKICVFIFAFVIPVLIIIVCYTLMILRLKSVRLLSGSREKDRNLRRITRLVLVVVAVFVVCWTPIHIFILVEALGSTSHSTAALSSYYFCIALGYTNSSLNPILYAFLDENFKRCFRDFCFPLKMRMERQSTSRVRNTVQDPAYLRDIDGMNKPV

[3] = target: T1, DOR; assay: Antagonism of SNC80-stimulated [35S]GTPγS binding in C6-DOR; type: biochemical
[4] = target: T1, DOR; assay: [35S]GTPγS binding assay, C6-DOR membranes; type: biochemical; conditions: [35S]GTPγS assay
[5] = target: MOR (Rattus norvegicus, UniProt P33535); assay: [35S]GTPγS binding assay, C6-MOR membranes; type: biochemical; conditions: [35S]GTPγS assay
Sequence of MOR (P33535 whole entry): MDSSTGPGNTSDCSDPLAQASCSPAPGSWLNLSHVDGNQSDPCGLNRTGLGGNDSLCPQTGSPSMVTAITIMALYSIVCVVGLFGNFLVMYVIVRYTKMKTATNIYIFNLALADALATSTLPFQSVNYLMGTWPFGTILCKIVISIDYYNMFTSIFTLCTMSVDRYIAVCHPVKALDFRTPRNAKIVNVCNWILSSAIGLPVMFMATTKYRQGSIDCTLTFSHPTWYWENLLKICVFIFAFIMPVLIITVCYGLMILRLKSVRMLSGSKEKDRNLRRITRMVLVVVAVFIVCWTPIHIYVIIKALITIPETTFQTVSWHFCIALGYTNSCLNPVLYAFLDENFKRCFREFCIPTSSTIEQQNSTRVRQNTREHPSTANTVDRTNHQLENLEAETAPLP

`C=CCN1C[C@H](C)N([C@H](c2ccc(C(=O)N(CC)CC)cc2)c2cccc(OC)c2)C[C@H]1C` [SNC80, 4-[(R)-[(2S,5R)-4-allyl-2,5-dimethylpiperazin-1-yl](3-methoxyphenyl)methyl]-N,N-diethylbenzamide] was tested, and the “calculated maximal inhibition of adenylyl cyclase” value [1] was 76 ± 8.8%.
For `NC(=O)[C@@H]1CSCSC[C@@H](NC(=O)[C@@H](N)Cc2ccc(O)cc2)C(=O)N[C@@H](Cc2ccccc2)C(=O)N[C@@H](Cc2ccc3ccccc3c2)C(=O)N1` [compound 9, Tyr-c(S-CH2-S)[D-Cys-Phe-2-Nal-Cys]NH2] (H-Y[dC]F[2Nal]C-NH2; linker 2-5 via CH2; N-terminus assumed), the “efficacy profile at KOR” value [2] was “full agonist”, the “activity in adenylyl cyclase inhibition assay” value ([1]; C6-DOR cells) was “partial agonist” and the “calculated maximal inhibition of adenylyl cyclase” value ([1]; calculated maximum, 5 µM forskolin-stimulated, C6-DOR cells) was 43 ± 9.0%. For the same compound, the Kb [3] was 48 ± 9.5 nM, the “efficacy profile at DOR” value [4] was “essentially as antagonists” and the “efficacy profile at MOR” value [5] was “full agonist”.
For `Oc1ccc2c3c1O[C@H]1c4[nH]c5ccccc5c4C[C@@]4(O)[C@@H](C2)N(CC2CC2)CC[C@]314` [naltrindole], the “activity in adenylyl cyclase inhibition assay” value [1] was “without effect; also recorded: did not inhibit cAMP accumulation”.

Reference: PMC2788680 (Journal of medicinal chemistry, 2009)
